Data as given in patent publication US20230322761A1, “DEGRADATION OF BRUTON'S TYROSINE KINASE (BTK) BY CONJUGATION OF BTK INHIBITORS WITH E3 LIGASE LIGAND AND METHODS OF USE” (BEIGENE, LTD., priority 2020, published 2023).

The molecules below were run against T1, BTK (Homo sapiens, UniProt Q06187) (assay: BTK degradation in TMD-8 cells, HTRF assay after 6 h treatment). Conditions: IC50 (DC50) of BTK degradation.
T1 construct: endogenous in cells; host or cells: TMD-8 cells
Format: cell-based
In short: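 Remaining BTK was quantified by HTRF in lysates of TMD-8 cells after 6 h exposure to an 8-point, 6-fold compound series (500× stocks in DMSO starting at 1 mM; 0.2% DMSO). Lysis 30 min, antibodies overnight at room temperature, ratio read at 665/620 nm; DC50 fitted with a four-parameter logistic equation.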

T1 sequence (Q06187 whole entry): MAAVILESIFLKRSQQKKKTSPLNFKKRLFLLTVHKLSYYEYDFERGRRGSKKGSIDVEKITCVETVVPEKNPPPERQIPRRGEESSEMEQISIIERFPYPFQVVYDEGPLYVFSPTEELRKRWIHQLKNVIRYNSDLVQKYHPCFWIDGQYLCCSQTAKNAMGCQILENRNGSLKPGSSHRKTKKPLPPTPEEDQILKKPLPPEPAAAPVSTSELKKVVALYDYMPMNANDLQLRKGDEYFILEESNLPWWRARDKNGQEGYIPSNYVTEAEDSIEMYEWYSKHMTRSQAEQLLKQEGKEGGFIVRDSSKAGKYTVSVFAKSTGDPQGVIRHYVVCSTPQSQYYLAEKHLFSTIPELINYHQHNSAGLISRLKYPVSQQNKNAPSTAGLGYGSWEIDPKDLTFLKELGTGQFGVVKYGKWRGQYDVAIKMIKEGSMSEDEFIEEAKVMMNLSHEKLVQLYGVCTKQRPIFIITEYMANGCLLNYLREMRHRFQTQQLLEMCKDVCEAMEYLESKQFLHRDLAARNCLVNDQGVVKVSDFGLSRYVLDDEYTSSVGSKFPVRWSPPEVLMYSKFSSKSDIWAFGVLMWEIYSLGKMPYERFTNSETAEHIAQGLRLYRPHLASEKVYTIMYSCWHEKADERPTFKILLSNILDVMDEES

DC50 [nM] | Structure (SMILES)
16.2 | Cc1cc(-c2n[nH]c3ncc(-c4ccc(N5CCN(CC6CCN(c7ccc(N8CCC(=O)NC8=O)c(C)c7)CC6)CC5)cc4)cc23)ccc1[C@@H](C)NC(=O)c1noc(C2(CO)CC2)n1 [Example 185, (R)—N-(1-(4-(5-(4-(4-((1-(4-(2,4-dioxotetrahydropyrimidin-1(2H)-yl)-3-methylphenyl)piperidin-4-yl)methyl)piperazin-1-yl)phenyl)-1H-pyrazolo[3,4-b]pyridin-3-yl)-2-methylphenyl)ethyl)-5-(1-(hydroxymethyl)cyclopropyl)-1,2,4-oxadiazole-3-carboxamide]
1.61 | Cc1cc(-c2n[nH]c3ncc(-c4ccc(N5CCN(CCn6cc(C7CCC(=O)NC7=O)cn6)CC5)cc4)cc23)ccc1[C@@H](C)NC(=O)c1noc(C(C)(C)C)n1 (stereo partly drawn) [Example 186, 5-(tert-butyl)-N-((1R)-1-(4-(5-(4-(4-(2-(4-(2,6-dioxopiperidin-3-yl)-1H-pyrazol-1-yl)ethyl)piperazin-1-yl)phenyl)-1H-pyrazolo[3,4-b]pyridin-3-yl)-2-methylphenyl)ethyl)-1,2,4-oxadiazole-3-carboxamide]
9.56 | Cc1cc(-c2n[nH]c3ncc(-c4ccc(N5CCC(COc6ccc(N7CCC(=O)NC7=O)cc6)CC5)cc4)cc23)ccc1[C@@H](C)NC(=O)c1noc(C(C)(C)C)n1 [Example 187, (R)-5-(tert-butyl)-N-(1-(4-(5-(4-(4-((4-(2,4-dioxotetrahydropyrimidin-1(2H)-yl)phenoxy)methyl)piperidin-1-yl)phenyl)-1H-pyrazolo[3,4-b]pyridin-3-yl)-2-methylphenyl)ethyl)-1,2,4-oxadiazole-3-carboxamide]
9.91 | Cc1cc(-c2n[nH]c3ncc(-c4ccc(N5CCN(CC(F)(F)c6ccc(C7CCC(=O)NC7=O)cc6)CC5)cc4)cc23)ccc1[C@@H](C)NC(=O)c1nc(C(C)(C)C)no1 (stereo partly drawn) [Example 188, 3-(tert-butyl)-N-((1R)-1-(4-(5-(4-(4-(2-(4-(2,6-dioxopiperidin-3-yl)phenyl)-2,2-difluoroethyl)piperazin-1-yl)phenyl)-1H-pyrazolo[3,4-b]pyridin-3-yl)-2-methylphenyl)ethyl)-1,2,4-oxadiazole-5-carboxamide]
23.6 | Cc1cc(-c2n[nH]c3ncc(-c4ccc(N5CC6CN(CCc7ccc(C8CCC(=O)NC8=O)c(C)n7)CC6C5)cn4)cc23)ccc1[C@@H](C)NC(=O)c1noc(C(C)(C)C)n1 (stereo partly drawn) [Example 189, 5-(tert-butyl)-N-((1R)-1-(4-(5-(5-(5-(2-(5-(2,6-dioxopiperidin-3-yl)-6-methylpyridin-2-yl)ethyl)hexahydropyrrolo[3,4-c]pyrrol-2(1H)-yl)pyridin-2-yl)-1H-pyrazolo[3,4-b]pyridin-3-yl)-2-methylphenyl)ethyl)-1,2,4-oxadiazole-3-carboxamide]
6.11 | Cc1cc(N2CCC(CN3CCN(c4ccc(-c5cnc6[nH]nc(-c7cc(CO)c([C@@H](C)NC(=O)c8nc(C(C)(C)C)no8)cc7F)c6c5)cc4)CC3)CC2)ccc1N1CCC(=O)NC1=O [Example 190, (R)-3-(tert-butyl)-N-(1-(4-(5-(4-(4-((1-(4-(2,4-dioxotetrahydropyrimidin-1(2H)-yl)-3-methylphenyl)piperidin-4-yl)methyl)piperazin-1-yl)phenyl)-1H-pyrazolo[3,4-b]pyridin-3-yl)-5-fluoro-2-(hydroxymethyl)phenyl)ethyl)-1,2,4-oxadiazole-5-carboxamide]
7.34 | Cc1cc(-c2n[nH]c3ncc(-c4ccc(N5CCN(CC6CCN(c7ccc(C8CCC(=O)NC8=O)cc7)C6)CC5)cc4)cc23)ccc1[C@@H](C)NC(=O)c1noc(C(C)(C)C)n1 (stereo partly drawn) [Example 191, 5-(tert-butyl)-N-((1R)-1-(4-(5-(4-(4-((1-(4-(2,6-dioxopiperidin-3-yl)phenyl)pyrrolidin-3-yl)methyl)piperazin-1-yl)phenyl)-1H-pyrazolo[3,4-b]pyridin-3-yl)-2-methylphenyl)ethyl)-1,2,4-oxadiazole-3-carboxamide]
4.03 | Cc1cc(-c2n[nH]c3ncc(-c4ccc(N5CCN(CC(F)(F)c6ccc(C7CCC(=O)NC7=O)cn6)CC5)cc4)cc23)ccc1[C@@H](C)NC(=O)c1nc(C(C)(C)C)no1 (stereo partly drawn) [Example 192, 3-(tert-butyl)-N-((1R)-1-(4-(5-(4-(4-(2-(5-(2,6-dioxopiperidin-3-yl)pyridin-2-yl)-2,2-difluoroethyl)piperazin-1-yl)phenyl)-1H-pyrazolo[3,4-b]pyridin-3-yl)-2-methylphenyl)ethyl)-1,2,4-oxadiazole-5-carboxamide]
3.06 | Cc1cc(-c2n[nH]c3ncc(-c4ccc(N5CCN(CC(F)(F)c6ccc(C7CCC(=O)NC7=O)cn6)CC5)cc4)cc23)ccc1[C@@H](C)NC(=O)c1noc(C(C)(C)C)n1 (stereo partly drawn) [Example 193, 5-(tert-butyl)-N-((1R)-1-(4-(5-(4-(4-(2-(5-(2,6-dioxopiperidin-3-yl)pyridin-2-yl)-2,2-difluoroethyl)piperazin-1-yl)phenyl)-1H-pyrazolo[3,4-b]pyridin-3-yl)-2-methylphenyl)ethyl)-1,2,4-oxadiazole-3-carboxamide]
1.69 | Cc1cc(-c2n[nH]c3ncc(-c4ccc(N5CCN(CCc6ccc(N7CCC(=O)NC7=O)cn6)CC5)cc4)cc23)ccc1[C@@H](C)NC(=O)c1noc(C(C)(C)C)n1 [Example 194, (R)-5-(tert-butyl)-N-(1-(4-(5-(4-(4-(2-(5-(2,4-dioxotetrahydropyrimidin-1(2H)-yl)pyridin-2-yl)ethyl)piperazin-1-yl)phenyl)-1H-pyrazolo[3,4-b]pyridin-3-yl)-2-methylphenyl)ethyl)-1,2,4-oxadiazole-3-carboxamide]
6.13 | COc1nc(CCN2CCN(c3ccc(-c4cnc5[nH]nc(-c6ccc([C@@H](C)NC(=O)c7nc(C(C)(C)C)no7)c(C)c6)c5c4)cc3)CC2)ccc1C1CCC(=O)NC1=O (stereo partly drawn) [Example 195, 3-(tert-butyl)-N-((1R)-1-(4-(5-(4-(4-(2-(5-(2,6-dioxopiperidin-3-yl)-6-methoxypyridin-2-yl)ethyl)piperazin-1-yl)phenyl)-1H-pyrazolo[3,4-b]pyridin-3-yl)-2-methylphenyl)ethyl)-1,2,4-oxadiazole-5-carboxamide]
1.05 | Cc1cc(-c2n[nH]c3ncc(-c4ccc(N5CCN(CCn6nc(C)c(C7CCC(=O)NC7=O)c6C)CC5)cc4)cc23)ccc1[C@@H](C)NC(=O)c1nc(C(C)(C)C)no1 (stereo partly drawn) [Example 196, 3-(tert-butyl)-N-((1R)-1-(4-(5-(4-(4-(2-(4-(2,6-dioxopiperidin-3-yl)-3,5-dimethyl-1H-pyrazol-1-yl)ethyl)piperazin-1-yl)phenyl)-1H-pyrazolo[3,4-b]pyridin-3-yl)-2-methylphenyl)ethyl)-1,2,4-oxadiazole-5-carboxamide]
1.08 | Cc1cc(-c2n[nH]c3ncc(-c4ccc(C5CCN(C6CC(c7ccc(C8CCC(=O)NC8=O)cc7)C6)CC5)nc4)cc23)ccc1[C@@H](C)NC(=O)c1noc(C(C)(C)C)n1 (stereo partly drawn) [Example 197, 5-(tert-butyl)-N-((1R)-1-(4-(5-(6-(1-(3-(4-(2,6-dioxopiperidin-3-yl)phenyl)cyclobutyl)piperidin-4-yl)pyridin-3-yl)-1H-pyrazolo[3,4-b]pyridin-3-yl)-2-methylphenyl)ethyl)-1,2,4-oxadiazole-3-carboxamide]
91.4 | Cc1cc(-c2n[nH]c3ncc(-c4ccc(N5CCC(COc6ccc(OC7CCC(=O)NC7=O)cc6)CC5)cc4)cc23)ccc1[C@@H](C)NC(=O)c1noc(C(C)(C)C)n1 (stereo partly drawn) [Example 198, 5-(tert-butyl)-N-((1R)-1-(4-(5-(4-(4-((4-((2,6-dioxopiperidin-3-yl)oxy)phenoxy)methyl)piperidin-1-yl)phenyl)-1H-pyrazolo[3,4-b]pyridin-3-yl)-2-methylphenyl)ethyl)-1,2,4-oxadiazole-3-carboxamide]
5.09 | Cc1cc(-c2n[nH]c3ncc(-c4ccc(N5CCN(CCc6ccc(C7CCC(=O)NC7=O)c(F)c6)CC5)nc4)cc23)ccc1[C@@H](C)NC(=O)c1noc(C(C)(C)C)n1 (stereo partly drawn) [Example 199, 5-(tert-butyl)-N-((1R)-1-(4-(5-(6-(4-(4-(2,6-dioxopiperidin-3-yl)-3-fluorophenethyl)piperazin-1-yl)pyridin-3-yl)-1H-pyrazolo[3,4-b]pyridin-3-yl)-2-methylphenyl)ethyl)-1,2,4-oxadiazole-3-carboxamide]
1.79 | Cc1cc(-c2n[nH]c3ncc(-c4ccc(C5(O)CCN(CC6CCN(c7ccc(N8CCC(=O)NC8=O)cc7)CC6)CC5)cc4)cc23)ccc1[C@@H](C)NC(=O)c1nc(C(C)(C)C)no1 [Example 201, (R)-3-(tert-butyl)-N-(1-(4-(5-(4-(1-((1-(4-(2,4-dioxotetrahydropyrimidin-1(2H)-yl)phenyl)piperidin-4-yl)methyl)-4-hydroxypiperidin-4-yl)phenyl)-1H-pyrazolo[3,4-b]pyridin-3-yl)-2-methylphenyl)ethyl)-1,2,4-oxadiazole-5-carboxamide]
9.04 | Cc1cc(-c2n[nH]c3ncc(-c4ccc(N5CCCN(CC6CCN(c7ccc(N8CCC(=O)NC8=O)cc7)CC6)CC5)cc4)cc23)ccc1[C@@H](C)NC(=O)c1nc(C(C)(C)C)no1 [Example 202, (R)-3-(tert-butyl)-N-(1-(4-(5-(4-(4-((1-(4-(2,4-dioxotetrahydropyrimidin-1(2H)-yl)phenyl)piperidin-4-yl)methyl)-1,4-diazepan-1-yl)phenyl)-1H-pyrazolo[3,4-b]pyridin-3-yl)-2-methylphenyl)ethyl)-1,2,4-oxadiazole-5-carboxamide]
5.27 | Cc1cc(-c2n[nH]c3ncc(-c4ccc(C5(F)CCN(CC6CCN(c7ccc(N8CCC(=O)NC8=O)cc7)CC6)CC5)cc4)cc23)ccc1[C@@H](C)NC(=O)c1nc(C(C)(C)C)no1 [Example 203, (R)-3-(tert-butyl)-N-(1-(4-(5-(4-(1-((1-(4-(2,4-dioxotetrahydropyrimidin-1(2H)-yl)phenyl)piperidin-4-yl)methyl)-4-fluoropiperidin-4-yl)phenyl)-1H-pyrazolo[3,4-b]pyridin-3-yl)-2-methylphenyl)ethyl)-1,2,4-oxadiazole-5-carboxamide]
